How the values were obtained:
Assay type in all cases: in vivo
[1] = tested on: complex I in gastrocnemius mitochondria; test: Complex I activity in gastrocnemius mitochondria; settings: D-gal exposed mice; n=12
Method: In view of the abnormal mitochondrial morphology in the skeletal muscle of the D-gal treated mice, the activities of some key enzymes in the electron transport chain (ETC) and the tricarboxylic acid (TCA) cycle were further examined.
(§1) FIG. 7 illustrates the effects of Formulas A-C on the activity of complex I in gastrocnemius and heart mitochondria. Activities of complex I of gastrocnemius (n=12) and heart (n=11) in all groups were assayed. All values are expressed as means ±SEM. **P<0.01 versus Normal group, ^#P<0.05 versus D-gal group, ^##P<0.01 versus D-gal group.

D-gal exposed mice [2] = test: Spatial memory test with the Morris Water Maze (MWM); settings: D-gal exposure 125 mg/kg/d, 8 weeks; 12 animals
Text: The Morris Walter Maze (MWM) was applied to measure cognitive deficiencies in D-gal exposed mice. […] In particular, FIG. 1A illustrates the latency time for finding a platform of control subjects, D-gal subjects and subjects administered Formulas A-C over a period of training days. The subjects, in this case, were mice. Values are illustrated as mean ±SEM of 12 animals. […] In addition, FIG. 1B illustrates the latency distance to the platform of control subjects, D-gal subjects and subjects administered Formulas A-C over the same period of training days as illustrated in FIG. 1A.

D-gal exposed mice [3] = test: Coordination test with the Rota-Rod; settings: 12 animals
Method: FIG. 2 illustrates a coordination test with the Rota-Rod. In addition, latency to fall was tested. Values are mean ±SEM of 12 animals.

[4] = tested on: complex I in heart mitochondria; test: Complex I activity in heart mitochondria; settings: D-gal exposed mice; n=11
Method: The activity of complex I was also assayed in several other tissues, such as liver, heart, and brain. FIG. 6 illustrates activities of complex I in mitochondria from multiple tissues. As is illustrated by the results shown in FIG. 6, D-gal administration impairs the activity of complex I in gastrocnemius. Values are means ±SEM of 12 mice in gastroanemius, 11 mice in heart and 12 mice in brain and liver. **P<0.01 versus Normal group.
as §1

D-gal exposed mice [5] = test: Grip strength test (forelimb); settings: 12 mice
Method: It should further be understood that a decrease in strength is a reliable indicator of the aging process. In this aspect, the rodent grip strength test is a putative measure of muscular strength and has been previously used to screen for neuromuscular function. FIG. 3 illustrates the results of a grip strength test. In particular, grip strength of forelimb was tested. Values are means ±SEM of 12 mice. **P<0.01 versus Normal group, ^##P<0.01 versus D-gal group, ^###P<0.001 versus D-gal group.

[6] = tested on: mitochondria of gastrocnemius muscle; test: Transmission electron microscopy of gastrocnemius muscle mitochondria; settings: D-gal exposed mice
Text: To understand the grip strength loss caused by D-gal exposure, the morphology of mice gastrocnemius muscles were further evaluated with transmission electron microscopy. FIGS. 4A-4E illustrate the transmission electron microscopy results of the gastrocnemius muscle. In particular, FIG. 4A illustrates the transmission electron microscopy for the control group of subjects (i.e. mice), FIG. 4B illustrates the transmission electron microscopy for the D-gal group, FIG. 4C illustrates the transmission electron microscopy for the Formula A group, FIG. 4D illustrates the transmission electron microscopy for the Formula B group, FIG. 4E illustrates the transmission electron microscopy for the Formula C group. A magnified view of the upper panels in FIGS. 4A-4E are shown in the lower panels.

O=C[C@H](O)[C@@H](O)[C@@H](O)[C@H](O)CO [D-gal, D-galactose]
complex I activity in gastrocnemius (skeletal muscle) mitochondria [1]: only complex I activity was impaired
spatial memory (latency time and latency distance to platform) in MWM (D-gal exposed mice [2]): did not affect the escape latency or swimming distance
motor coordination (latency to fall) in Rota-Rod test (D-gal exposed mice [3]): No difference in latency time
complex I activity in heart mitochondria [4]: marginal decrease in heart muscle
grip strength of forelimb (D-gal exposed mice [5]): significantly weaker grip strength
mitochondrial morphology in gastrocnemius muscle [6]: swollen and elongated mitochondria with obvious cristae disruption
